Assay results published in patent publication US8883504B2, “Cell differentiation suppressing agent, method of culturing cells using the same, culture solution, and cultured cell line” (Asahi Kasei Kabushiki Kaisha, priority 2003, dated 2014).

Columns and labels:
mouse ES cell = test: Subculture of ES cells, alkaline phosphatase quantified by colony assay; type: cell-based
Method: For the ES cells prepared by the method described in (3) preparation of the mouse ES cell of Example 1, 3×10^5 cells were seeded on a 6 cm-diameter cell culture dish coated previously with a 0.1% aqueous gelatin solution to make 4.5 mL of the ES cell assay medium. 0.5 mL of the differentiation inhibiting agent (A to F and a to o) of the present invention, which was dissolved in dimethylsulfoxide (DMSO) or culture medium, or their mixture to make 10 to 40 μg/mL per each dish, or 10^4 units/mL of ESGRO was added. The final concentration of DMSO in the culture medium was 0.1% or lower. As the control, only DMSO was made the final concentration in 0.1% by adding 0.5 mL of a 1% concentration solution diluted with the medium. Culturing was conducted at 37° C. in 5% CO2 incubator for 7 to 30 days. The medium was replaced every day, and the cells were passaged to make 3×10^5 cells/dish for every 2 to 3 days.
The alkaline phosphatase activity of the ES cells cultured for 7 or 30 days by using the differentiation inhibiting agents of the present invention was quantified by applying colony assay. […] The absorbance at 405 nm (O.D.405) and absorbance at 690 nm (O.D.690) of the solution were measured by using the spectrophotometer (Molecular Devices Corp. made, type: SPECTRA MAX190), and the value calculated from O.D.405-O.D.690 was determined as the alkaline phosphatase activity.

[1] = system: cynomolgus monkey ES cells; test: ES cell differentiation inhibition assay 6, alkaline phosphatase staining; type: cell-based; details: for proportion of number of alkaline phosphatase stained colony to number of the total colony, in comparison with DMSO (0.1%): Matrigel-coated dish, cultured for 2 days, FIG. 15
Method: As the medium for culturing cynomolgus monkey ES cells, DME/F-12, 1:1 (SIGMA D6421) was added with respective factors in the final concentration as presented below to prepare a cynomolgus monkey ES cell culture medium: 20% knockout serum replacement: KSR (Invitrogen Corp. made, 10828-028), 1× nonessential amino acids (SIGMA M7145), 2 mM L-Glutamine (SIGMA G7513), 1 mM sodium pyruvate (SIGMA S8636), 1× penicillin/streptomycin solution (SIGMA P0781). The culture medium for a mouse feeder cell used for culturing cynomolgus monkey ES cells was prepared by adding respective factors to DMEM (Invitrogen Corp. made, 11960-044) in the final concentration shown below: 10% bovine fetus serum (Invitrogen Corp. made), 2 mM L-glutamine (Sigma G7513), 1× penicillin/streptomycin solution (Sigma P0781).
Gelatin (SIGMA Corp. made, Type A: from porcine ESkin, G2500) was dissolved in distilled water in 0.1% concentration, and 5 mL of the thus prepared 0.1% sterilized aqueous gelatin solution was added in a 6 cm-diameter cell culture dish, and then left stand at 37° C. for 30 minutes or longer. The aqueous gelatin solution was removed, and 2×10^6 mouse embryonic primary culture cell (Invitrogen Corp. made, YE9284400) treated with mitomycin, C (Kyouwa Hakkou Corp. made) was seeded and cultured by using the culture medium for the feeder cell as described above at 37° C. in 5% CO2 incubator (Tabai Espec Corp. made) for 5 hours or longer. The cynomolgus monkey ES cells (Tanabe Seiyaku, K.K. made) was seeded on mouse embryonic primary culture cell, and cultured and proliferated in 5 mL of cynomolgus monkey ES cell culture medium at 37° C. in 5% CO2 incubator for 3 days.
The cynomolgus monkey ES cells cultured by the method described in (1) culture of cynomolgus monkey ES cells as described above were washed with PBS and, then, a 0.1% collagenase solution (Wako Corp. made, 032-10534) dissolved in DMEM (Invitrogen Corp. made 11960-044), or a trypsin solution (prepared by mixing 10 mL of a 2.5% trypsin solution (Invitrogen Corp. made 15090-046), 20 mL of Knockout Serum Replacement (Invitrogen Corp. made 10828-028), 1 mL of a 100 mM CaCl2 aqueous solution and 69 mL of PBS) was added, and incubation was carried out at 37° C. for 5 minutes. 5 mL of the cynomolgus monkey ES cell culture medium was added, cell colonies were removed by using a small sized pipette and, then, dispersed, transferred to a 15 mL sterilized tube, and centrifuged at 1000 rpm for about 5 minutes by using the micro centrifuge (TOMY SEIKO made) to prepare pellets. The supernatant was removed, and then the cells were suspended again in 5 mL of the fresh ES cell culture medium to obtain the cynomolgus monkey ES cells. […]

| SMILES | alkaline phosphatase activity of subcultured ES cells in comparison with ES cells cultured by using DMSO (0.1%) (mouse ES cell; subcultured in the medium without serum for 7 days by adding the compound, FIG. 14) | alkaline phosphatase staining of subcultured cells in comparison with DMSO ([1]; 3rd day after subculture after 3-day culture, FIG. 16) | proportion of number of alkaline phosphatase stained colony to number of the total colony, in comparison with DMSO (0.1%) [1] | effect on alkaline phosphatase staining in the presence of 6-bromoindirubin-3-oxime ([1]; subcultured, in the presence of 6-bromoindirubin-3-oxime, FIG. 16) | alkaline phosphatase activity of subcultured ES cells in comparison with ES cells cultured by using DMSO (0.1%) (mouse ES cell; subcultured for 30 days by adding the compound, FIG. 13) |
| --- | --- | --- | --- | --- | --- |
| COc1ccc(N=NC(C(N)=O)=C2NC(C)(C)Cc3ccccc32)cc1 [F, 2-(3,3-dimethyl-3,4-dihydro-2H-isoquinoline-1-ylidene)-2-(4-methoxy-phenylazo)-acetamide] | increased significantly | stained significantly | significantly higher proportion of colonies stained with alkaline phosphatase | reinforced | – |
| CC(=O)c1ccc(/N=N/C(C(N)=O)=C2/NC(C)(C)Cc3ccccc32)cc1 [compound B, 2-(4-acetyl-phenylazo)-2-(3,3-dimethyl-3,4-dihydro-2H-isoquinoline-1-ylidene)-acetamide] | – | – | significantly higher proportion of colonies stained with alkaline phosphatase | – | increased significantly |
